A word on the IC50: it is the midpoint of a concentration-inhibition curve.

This is an account of results in patent publication US9061984B2 (University of Louisville Research Foundation, Inc., priority 2008, dated 2015).

Data set [1] can be described thus: Cytotoxicity VERO cell (Table 6). The settings on record: African green monkey, VERO cells.
Data set [2] can be described thus: Cytotoxicity on VERO cells (MTT), anti-T. cruzi study. The following applies: African green monkey, VERO cells, Cytotoxicity VERO Lab B, Lab B.
Data set [3] relates to Trypanosoma cruzi (Tulahuen C4). In words: In vitro anti-T. cruzi activity (β-galactosidase CPRG colorimetric assay in VERO monolayer). The class given is cell-based. The following applies: for IC50: Trypanosoma cruzi, TULAHUEN, Vero.

In brackets after ≈: the same amount, converted by molar mass. Read-outs that look alike come from different tables or passages of the source.

`C(=N/Nc1ncnc2sc3c(c12)CCCC3)/c1ccccn1` [II-21]: the IC50 in data set [1] is 10.8 µg/mL (≈ 34.9 µM); in data set [2], less than 0.08 µg/mL; in data set [3] (Lab A, read-out: T. cruzi IC50 Lab A) it was 0.1 µg/mL (≈ 0.323 µM); in data set [3] (Lab B, read-out: T. cruzi IC50 Lab B), 1.2 µg/mL (≈ 3.88 µM). Further, the “Selectivity Index Lab B” value in data set [3] (IC50, VERO/IC50, T. cruzi, Lab B) turned out to be 0.1.
